From patent US20100092443A1, “NOVEL COMBINATIONS OF NITROGENATED HETEROCYCLIC ANTIBACTERIAL COMPOUNDS WITH OTHER ANTIBACTERIAL COMPOUNDS AND THE USE OF SAME AS DRUGS” (priority 2008, published 2010)
Converted amounts (≈) assume the structure as drawn. Where two headings read alike, the source gives them in different places.

Assays:
Format in all cases: cell-based
Pseudomonas aeruginosa = experiment: MIC, dilutions in liquid medium, alone and combined with NXL105; settings: Pseudomonas aeruginosa
Experimental: (§1) In vitro activity, method of dilutions in liquid medium:
A series of test 96-well microtiter plates are prepared in which the same quantity of sterile nutritive medium is distributed. Increasing quantities of the compound to be studied, namely the antibacterial compound alone and the inventive combination with the compound of formula (I) of example 1, are distributed in each plate in the respective proportions 2:1 and 4:1, and then each plate is inoculated with a bacterial strain of Pseudomonas aeruginosa. After 24 h of incubation in a 37° C. oven, growth inhibition is evaluated by transillumination, which makes it possible to determine the minimum inhibitory concentrations (MICS) expressed in μg/ml.

E. coli = experiment: microbe, parasite or virus in culture; settings: Escherichia coli
Experimental: as §1
(§2) A series of test 96-well microtiter plates are prepared in which the same quantity of sterile nutritive medium is distributed. […] After 24 h of incubation in a 37° C. oven, growth inhibition is evaluated by transillumination, which makes it possible to determine the minimum inhibitory concentrations (MICS) expressed in μg/ml.

E. cloacae = experiment: MIC, dilutions in liquid medium, alone and combined with NXL105; settings: Enterobacter cloacae
Experimental: as §1, §2

K. pneumoniae = experiment: as above
Experimental: as §1, §2

K. oxytoca = experiment: as above; settings: Klebsiella oxytoca, read-out: MIC
C. freundii = experiment: as above; settings: Citrobacter freundii

C[C@@H](O)[C@H]1C(=O)N2C(C(=O)O)=C(S[C@@H]3CN[C@H](C(=O)N(C)C)C3)[C@H](C)[C@H]12 [Meropenem]
MIC (Pseudomonas aeruginosa; ATCC27853, P. aeruginosa ATCC 27853): 1 µg/mL | MIC (Pseudomonas aeruginosa; P. aeruginosa 391HG2): > 32 µg/mL | MIC (Pseudomonas aeruginosa; P. aeruginosa 391HG21): > 32 µg/mL | MIC (Pseudomonas aeruginosa; P. aeruginosa 391HG38): 32 µg/mL | MIC (Pseudomonas aeruginosa; P. aeruginosa 391HG39): 0.06 µg/mL | MIC (Pseudomonas aeruginosa; P. aeruginosa 391HG58): 32 µg/mL | MIC (Pseudomonas aeruginosa; P. aeruginosa 391HG118): 8 µg/mL | MIC (Pseudomonas aeruginosa; P. aeruginosa 391HG123): 32 µg/mL | MIC (Pseudomonas aeruginosa; P. aeruginosa 391HG158): 32 µg/mL | MIC (Pseudomonas aeruginosa; P. aeruginosa 391HG271): > 32 µg/mL | MIC (Pseudomonas aeruginosa; P. aeruginosa 391HG329): > 32 µg/mL | MIC (Pseudomonas aeruginosa; P. aeruginosa 391K767): 2 µg/mL | MIC (Pseudomonas aeruginosa; P. aeruginosa 391K1455): 4 µg/mL | MIC (Pseudomonas aeruginosa; P. aeruginosa 391K1523): 2 µg/mL | MIC (Pseudomonas aeruginosa; P. aeruginosa 391K1525): 2 µg/mL | MIC (Pseudomonas aeruginosa; P. aeruginosa 391K1536): 2 µg/mL | MIC (Pseudomonas aeruginosa; P. aeruginosa 391K2376): 2 µg/mL | MIC (Pseudomonas aeruginosa; P. aeruginosa 391K2379): 4 µg/mL | MIC (Pseudomonas aeruginosa; P. aeruginosa 391K2415): 2 µg/mL | MIC (Pseudomonas aeruginosa; P. aeruginosa 391KB9): 4 µg/mL | MIC (Pseudomonas aeruginosa; P. aeruginosa 391KB14): 8 µg/mL | MIC (Pseudomonas aeruginosa; P. aeruginosa 391KB21): 8 µg/mL | MIC (Pseudomonas aeruginosa; P. aeruginosa 391KB33): 4 µg/mL | MIC (Pseudomonas aeruginosa; P. aeruginosa 391KB38): 8 µg/mL | MIC (Pseudomonas aeruginosa; P. aeruginosa 391KB62): > 32 µg/mL | MIC (Pseudomonas aeruginosa; P. aeruginosa 391KB68): 1 µg/mL | MIC (Pseudomonas aeruginosa; P. aeruginosa 391KB90): 16 µg/mL | MIC (Pseudomonas aeruginosa; P. aeruginosa 391KB91): 16 µg/mL | MIC (Pseudomonas aeruginosa; P. aeruginosa 391KB99): 16 µg/mL | MIC (Pseudomonas aeruginosa; P. aeruginosa 391KB103): 8 µg/mL | MIC (Pseudomonas aeruginosa; P. aeruginosa 391KB105): 4 µg/mL | MIC (Pseudomonas aeruginosa; P. aeruginosa 391KB106): 4 µg/mL | MIC (Pseudomonas aeruginosa; P. aeruginosa 391KB107): 32 µg/mL | MIC (Pseudomonas aeruginosa; P. aeruginosa 391KB114): 16 µg/mL | MIC (Pseudomonas aeruginosa; P. aeruginosa 391KB127): 2 µg/mL | MIC (Pseudomonas aeruginosa; P. aeruginosa 391KB135): > 32 µg/mL | MIC (Pseudomonas aeruginosa; P. aeruginosa 391KB136): > 32 µg/mL | MIC (Pseudomonas aeruginosa; P. aeruginosa 391KB137): > 32 µg/mL | MIC (Pseudomonas aeruginosa; P. aeruginosa 391KB138): > 32 µg/mL | MIC (Pseudomonas aeruginosa; P. aeruginosa 391KB139): > 32 µg/mL | MIC (Pseudomonas aeruginosa; P. aeruginosa 391KB140): 16 µg/mL | MIC (Pseudomonas aeruginosa; P. aeruginosa 391KB141): > 32 µg/mL | MIC (Pseudomonas aeruginosa; P. aeruginosa 391KB142): > 32 µg/mL | MIC (Pseudomonas aeruginosa; P. aeruginosa 391KB143): > 32 µg/mL | MIC (Pseudomonas aeruginosa; P. aeruginosa 391KB144): > 32 µg/mL | MIC (Pseudomonas aeruginosa; P. aeruginosa 391QBR2): > 32 µg/mL | MIC (Pseudomonas aeruginosa; P. aeruginosa 391QBR3): 32 µg/mL | MIC (Pseudomonas aeruginosa; P. aeruginosa 391QBR4): 16 µg/mL | MIC (Pseudomonas aeruginosa; P. aeruginosa 391QBR5): 32 µg/mL | MIC (Pseudomonas aeruginosa; P. aeruginosa 391QBR7): 32 µg/mL | MIC (Pseudomonas aeruginosa; P. aeruginosa 391QBR8): 16 µg/mL | MIC (Pseudomonas aeruginosa; P. aeruginosa 391QBR9): 16 µg/mL | MIC (Pseudomonas aeruginosa; P. aeruginosa 391QBR10): 4 µg/mL | MIC (Pseudomonas aeruginosa; P. aeruginosa C3719): > 32 µg/mL | MIC (Pseudomonas aeruginosa; P. aeruginosa PA2192): 8 µg/mL | MIC (E. coli; 24 h, E. coli 2138, KPC-2 + TEM-1): 8 µg/mL | MIC (E. coli; 24 h, E. coli (no alias), CTX-M-15 + TEM-1 + OXA-1): ≤ 0.03 µg/mL | MIC (E. coli; 24 h, E. coli IND, VEB-1 + CMY-2): 0.06 µg/mL | MIC (E. coli; 24 h, E. coli TN06, CTX-M-2 + TEM-1): 0.06 µg/mL | MIC (E. coli; 24 h, E. coli TN13, CTX-M-14 + CMY-2 + TEM-1): 0.25 µg/mL | MIC (E. coli; 24 h, E. coli Tunisie clone E4, CTX-M-16 + TEM-1): 0.125 µg/mL | MIC (E. coli; E. coli (no alias), Cephalosporinase, read-out: MIC): 0.06 µg/mL (≈ 0.156 µM) | MIC (E. coli; E. coli (no alias), SHV-4): ≤ 0.03 µg/mL | MIC (E. coli; E. coli (no alias), TEM-3): ≤ 0.03 µg/mL | MIC (E. cloacae): 0.125 µg/mL | MIC (E. cloacae; 24 h, E. cloacae 7506, KPC-2 + TEM-1 + KLUC-2, read-out: MIC): 16 µg/mL | MIC (E. cloacae; E. cloacae (no alias), AmpC, read-out: MIC): 0.5 µg/mL | MIC (K. pneumoniae; K. pneumoniae 236, SHV-5 + TEM-10): 0.125 µg/mL | MIC (K. pneumoniae; K. pneumoniae 444, SHV-5 + TEM-2 + PER): 0.125 µg/mL | MIC (K. pneumoniae; K. pneumoniae 1734, FOX-3 + TEM-1): 0.125 µg/mL | MIC (K. pneumoniae; K. pneumoniae 9701, CMY-4 + TEM-1): 0.125 µg/mL | MIC (K. pneumoniae; K. pneumoniae Tunisie clone K1, CTX-M-16 + OXA-1): 0.125 µg/mL | MIC (K. pneumoniae; K. pneumoniae Tunisie clone K4, CTX-M-15 + TEM-1 + OXA-1): 0.125 µg/mL | MIC (K. pneumoniae; Klebsiella pneumoniae): 0.125 µg/mL | MIC (K. pneumoniae; Klebsiella pneumoniae, 24 h, K. pneumoniae 60, SHV-2 + TEM-2 + PER, read-out: MIC): 0.06 µg/mL | MIC (K. pneumoniae; Klebsiella pneumoniae, 24 h, K. pneumoniae 157, SHV-5 + TEM-26, read-out: MIC): ≤ 0.03 µg/mL | MIC (K. pneumoniae; Klebsiella pneumoniae, 24 h, K. pneumoniae 181, SHV-5 + TEM-10, read-out: MIC): 4 µg/mL | MIC (K. pneumoniae; Klebsiella pneumoniae, 24 h, K. pneumoniae 238, SHV-2 + TEM-12 + CTX-M-2, read-out: MIC): ≤ 0.03 µg/mL | MIC (K. pneumoniae; Klebsiella pneumoniae, 24 h, K. pneumoniae 253, SHV-2 + TEM-12 + CTX-M-2, read-out: MIC): 0.06 µg/mL | MIC (K. pneumoniae; Klebsiella pneumoniae, 24 h, K. pneumoniae 427, SHV-1 + TEM-1B + CTX-M-3, read-out: MIC): 0.06 µg/mL | MIC (K. pneumoniae; Klebsiella pneumoniae, 24 h, K. pneumoniae 441, SHV-1 + TEM-2 + PER, read-out: MIC): 0.06 µg/mL | MIC (K. pneumoniae; Klebsiella pneumoniae, 24 h, K. pneumoniae 449, SHV-1 + TEM-2 + PER, read-out: MIC): ≤ 0.03 µg/mL | MIC (K. pneumoniae; Klebsiella pneumoniae, 24 h, K. pneumoniae 465, TEM-1B + CTX-M-2, read-out: MIC): 0.25 µg/mL | MIC (K. pneumoniae; Klebsiella pneumoniae, 24 h, K. pneumoniae KOL, MOX-2 + SHV-5 + TEM-1, read-out: MIC): 0.06 µg/mL | MIC (K. pneumoniae; Klebsiella pneumoniae, 24 h, K. pneumoniae Patient 1BHR, VIM-4 + CTX-M-15 = CMY-4 + TEM-1, read-out: MIC): 16 µg/mL | MIC (K. pneumoniae; Klebsiella pneumoniae, 24 h, K. pneumoniae Patient F, VIM-1 + SHV-5, read-out: MIC): > 32 µg/mL | MIC (K. pneumoniae; Klebsiella pneumoniae, 24 h, K. pneumoniae SLK54, ACC-1 + TEM-1, read-out: MIC): 0.06 µg/mL | MIC (K. pneumoniae; Klebsiella pneumoniae, 24 h, K. pneumoniae TN58467, DHA-1 + SHV-2a + TEM-1, read-out: MIC): 0.25 µg/mL | MIC (K. pneumoniae; Klebsiella pneumoniae, ATCC700603, K. pneumoniae ATCC 700603, SHV-18, read-out: MIC): 0.06 µg/mL | MIC (K. pneumoniae; Klebsiella pneumoniae, K. pneumoniae 26, SHV-5, read-out: MIC): ≤ 0.03 µg/mL | MIC (K. pneumoniae; Klebsiella pneumoniae, K. pneumoniae CL5761, KPC-3, read-out: MIC): > 32 µg/mL | MIC (K. pneumoniae; Klebsiella pneumoniae, K. pneumoniae CL5762, KPC-3, read-out: MIC): > 32 µg/mL | MIC (K. pneumoniae; Klebsiella pneumoniae, K. pneumoniae CL5763, KPC-3, read-out: MIC): > 32 µg/mL | MIC (K. pneumoniae; Klebsiella pneumoniae, K. pneumoniae VA8, KPC-3, read-out: MIC): ≤ 0.03 µg/mL | MIC (K. pneumoniae; Klebsiella pneumoniae, K. pneumoniae VAKP, KPC-2, read-out: MIC): 32 µg/mL | MIC (K. pneumoniae; Klebsiella pneumoniae, K. pneumoniae YC, KPC-2, read-out: MIC): 32 µg/mL | MIC (K. oxytoca; K. oxytoca 1431, TEM-129): 0.06 µg/mL | MIC (K. oxytoca; K. oxytoca 16944, OXY-2, TEM-1): 0.06 µg/mL | MIC (C. freundii): 0.125 µg/mL | MIC (C. freundii; 24 h, C. freundii (no alias), AmpC + TEM-1, read-out: MIC): 0.06 µg/mL | MIC (C. freundii; C. freundii (no alias, table row r121), AmpC, read-out: MIC): 0.25 µg/mL | MIC (C. freundii; C. freundii (no alias, table row r122), AmpC, read-out: MIC): 0.06 µg/mL | MIC (C. freundii; C. freundii (no alias, table row r125), AmpC, read-out: MIC): 0.06 µg/mL
